# From ChEMBL document CHEMBL4706737, “PROTAC-Mediated Degradation of Bruton's Tyrosine Kinase as a Therapeutic Strategy for Cancer” (ACS Med Chem Lett, 2021)
# Molecular target: Protein cereblon/Tyrosine-protein kinase BTK (Homo sapiens, UniProt Q06187+Q96SW2)
# Test: Protac activity at E3 ubiquitin ligase/BTK in human Ramos cells assessed as induction of BTK degradation measured after 16 hrs by ELISA
# Format: cell-based
# Protein cereblon/Tyrosine-protein kinase BTK, sequence (Q06187 whole entry): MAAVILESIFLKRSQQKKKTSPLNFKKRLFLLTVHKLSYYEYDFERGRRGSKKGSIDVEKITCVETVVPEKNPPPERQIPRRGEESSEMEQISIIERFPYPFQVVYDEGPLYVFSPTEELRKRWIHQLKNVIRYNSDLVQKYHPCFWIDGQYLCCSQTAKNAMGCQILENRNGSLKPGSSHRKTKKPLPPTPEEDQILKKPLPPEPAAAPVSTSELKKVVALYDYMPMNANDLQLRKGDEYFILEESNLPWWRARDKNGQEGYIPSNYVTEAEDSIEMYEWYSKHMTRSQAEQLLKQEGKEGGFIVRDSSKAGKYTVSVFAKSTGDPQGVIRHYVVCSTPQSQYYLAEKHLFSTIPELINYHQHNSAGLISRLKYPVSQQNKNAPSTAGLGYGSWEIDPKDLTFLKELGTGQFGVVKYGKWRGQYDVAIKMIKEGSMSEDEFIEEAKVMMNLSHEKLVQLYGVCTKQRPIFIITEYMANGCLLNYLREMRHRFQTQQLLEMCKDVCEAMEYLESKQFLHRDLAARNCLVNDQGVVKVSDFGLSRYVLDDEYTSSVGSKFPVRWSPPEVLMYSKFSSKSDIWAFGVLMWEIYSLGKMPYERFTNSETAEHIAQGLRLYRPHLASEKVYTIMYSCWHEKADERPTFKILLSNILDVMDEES
# Protein cereblon/Tyrosine-protein kinase BTK, sequence (Q96SW2 whole entry): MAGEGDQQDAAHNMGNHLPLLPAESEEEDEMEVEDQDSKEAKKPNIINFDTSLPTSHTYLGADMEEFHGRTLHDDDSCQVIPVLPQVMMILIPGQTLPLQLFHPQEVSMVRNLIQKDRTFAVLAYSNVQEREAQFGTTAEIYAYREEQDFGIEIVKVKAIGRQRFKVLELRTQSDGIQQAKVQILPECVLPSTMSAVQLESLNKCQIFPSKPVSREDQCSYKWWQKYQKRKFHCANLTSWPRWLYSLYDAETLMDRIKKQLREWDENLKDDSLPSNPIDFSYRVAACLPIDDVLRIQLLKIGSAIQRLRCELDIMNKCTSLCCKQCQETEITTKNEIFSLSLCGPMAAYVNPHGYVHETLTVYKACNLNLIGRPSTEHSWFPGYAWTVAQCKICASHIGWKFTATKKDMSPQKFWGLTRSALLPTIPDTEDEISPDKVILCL
row,DC50,Structure (SMILES)
1,0.0029 µM,NC(=O)c1c(-c2ccc(Oc3ccccc3)cc2)nn2c1NCC[C@H]2C1CCN(C(=O)CCN2CCN(C(=O)CNc3ccc4c(c3)C(=O)N(C3CCC(=O)NC3=O)C4=O)CC2)CC1 (some centres not stated)
2,0.068 µM,NC(=O)c1c(-c2ccc(Oc3ccccc3)cc2)nn2c1NCC[C@H]2C1CCN(C(=O)c2cn(CCOCCOCCOCCOCCNc3cccc4c3C(=O)N(C3CCC(=O)NC3=O)C4=O)nn2)CC1 (some centres not stated)
3,0.078 µM,NC(=O)c1c(-c2ccc(Oc3ccccc3)cc2)nn2c1NCC[C@H]2C1CCN(C(=O)c2cn(CCOCCOCCOCCOCCOCCNc3ccc4c(c3)C(=O)N(C3CCC(=O)NC3=O)C4=O)nn2)CC1 (some centres not stated)
4,0.017 µM,NC(=O)c1c(-c2ccc(Oc3ccccc3)cc2)nn2c1NCC[C@H]2C1CCN(C(=O)CCC2CCC(N3CCN(c4ccc5c(c4)C(=O)N(C4CCC(=O)NC4=O)C5=O)CC3)CC2)CC1 (some centres not stated)
5,0.107 µM,NC(=O)c1c(-c2ccc(Oc3ccccc3)cc2)nn2c1NCC[C@H]2C1CCN(C(=O)c2cn(CCOCCOCCOCCOCCOCCOCCNc3cccc4c3C(=O)N(C3CCC(=O)NC3=O)C4=O)nn2)CC1 (some centres not stated)
6,0.078 µM,NC(=O)c1c(-c2ccc(Oc3ccccc3)cc2)nn2c1NCC[C@H]2C1CCN(C(=O)c2cn(CCOCCOCCOCCOCCOCCNc3cccc4c3C(=O)N(C3CCC(=O)NC3=O)C4=O)nn2)CC1 (some centres not stated)
7,0.035 µM,CN(CCC(=O)N1CCC([C@@H]2CCNc3c(C(N)=O)c(-c4ccc(Oc5ccccc5)cc4)nn32)CC1)CC1CCN(c2ccc3c(c2)C(=O)N(C2CCC(=O)NC2=O)C3=O)CC1 (some centres not stated)
8,0.0072 µM,CN(CC1CCN(C(=O)c2ccc(N3CCC(=O)NC3=O)cc2)CC1)C1CC(C(=O)N2CCC([C@@H]3CCNc4c(C(N)=O)c(-c5ccc(Oc6ccccc6)cc5)nn43)CC2)C1 (some centres not stated)
9,0.074 µM,NC(=O)c1c(-c2ccc(Oc3ccccc3)cc2)nn2c1NCC[C@H]2C1CCN(C(=O)CCc2ccc(N3CCN(c4ccc5c(c4)C(=O)N(C4CCC(=O)NC4=O)C5=O)CC3)cc2)CC1 (some centres not stated)
10,0.034 µM,NC(=O)c1c(-c2ccc(Oc3ccccc3)cc2)nn2c1NCC[C@H]2C1CCN(C(=O)c2cn(CCOCCOCC(=O)Nc3ccc4c(c3)C(=O)N(C3CCC(=O)NC3=O)C4=O)nn2)CC1 (some centres not stated)
11,0.028 µM,NC(=O)c1c(-c2ccc(Oc3ccccc3)cc2)nn2c1NCC[C@H]2C1CCN(C(=O)CCCc2ccc(NC(=O)CNc3ccc4c(c3)C(=O)N(C3CCC(=O)NC3=O)C4=O)cc2)CC1 (some centres not stated)
12,0.035 µM,NC(=O)c1c(-c2ccc(Oc3ccccc3)cc2)nn2c1NCC[C@H]2C1CCN(C(=O)CCCN2CCN(C(=O)CNc3ccc4c(c3)C(=O)N(C3CCC(=O)NC3=O)C4=O)CC2)CC1 (some centres not stated)
